Source: patent publication US20140011799A1 (Bristol-Myers Squibb Company, priority 2012, published 2014)
One block for each compound: values may come before it.

Legend:
[1] = biological target: T1, hepatic lipase (HL) (Homo sapiens, UniProt P11150); assay: Hepatic lipase (HL) enzymatic assay, fluorescent substrate A10070 in DMPG vesicles; type: biochemical; conditions: HL partially purified from conditioned media of COS cells; compound preincubated 30 min at 37° C; read-out: HL IC50
T1 construct: made in house; host or cells: COS cells (conditioned medium, partially purified)
T1 sequence (P11150 23-499): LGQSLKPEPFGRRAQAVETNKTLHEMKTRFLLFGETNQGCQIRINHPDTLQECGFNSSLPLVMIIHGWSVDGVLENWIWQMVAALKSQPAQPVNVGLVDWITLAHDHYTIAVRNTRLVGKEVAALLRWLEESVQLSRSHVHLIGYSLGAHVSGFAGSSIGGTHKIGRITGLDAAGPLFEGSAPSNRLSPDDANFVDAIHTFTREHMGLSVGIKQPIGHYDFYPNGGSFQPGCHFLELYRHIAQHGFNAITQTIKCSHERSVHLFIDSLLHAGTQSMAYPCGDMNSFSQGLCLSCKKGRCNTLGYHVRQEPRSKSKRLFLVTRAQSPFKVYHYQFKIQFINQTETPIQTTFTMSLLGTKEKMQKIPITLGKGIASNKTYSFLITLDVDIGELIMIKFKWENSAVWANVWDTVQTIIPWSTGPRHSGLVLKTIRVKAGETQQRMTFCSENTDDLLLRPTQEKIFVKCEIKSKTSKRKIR
How it was run: (§1)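 Vesicles prepared: A10070 dried with DMPG, resuspended in HEPES pH 8.0/NaCl/EDTA, sonicated on ice. Enzyme incubated with compound 30 min at 37° C. Reaction started with 1:10 diluted vesicles. Fluorescence (490/530 nm) followed 60 min; slope from 300–900 secs gives rate.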

[2] = biological target: T2, Endothelial lipase (EL) (Homo sapiens, UniProt Q9Y5X9); assay: Endothelial lipase (EL) enzymatic assay, fluorescent substrate A10070 in DMPG vesicles; type: biochemical; conditions: EL from conditioned media of HT-1080 cells; compound preincubated 30 min at 37° C; read-out: EL IC50
T2 construct: HT-1080 cells that were transformed using RAGE technology (Athersys) to overexpress endogenous EL; endogenous in cells; conditioned medium used
T2 sequence (Q9Y5X9 21-500): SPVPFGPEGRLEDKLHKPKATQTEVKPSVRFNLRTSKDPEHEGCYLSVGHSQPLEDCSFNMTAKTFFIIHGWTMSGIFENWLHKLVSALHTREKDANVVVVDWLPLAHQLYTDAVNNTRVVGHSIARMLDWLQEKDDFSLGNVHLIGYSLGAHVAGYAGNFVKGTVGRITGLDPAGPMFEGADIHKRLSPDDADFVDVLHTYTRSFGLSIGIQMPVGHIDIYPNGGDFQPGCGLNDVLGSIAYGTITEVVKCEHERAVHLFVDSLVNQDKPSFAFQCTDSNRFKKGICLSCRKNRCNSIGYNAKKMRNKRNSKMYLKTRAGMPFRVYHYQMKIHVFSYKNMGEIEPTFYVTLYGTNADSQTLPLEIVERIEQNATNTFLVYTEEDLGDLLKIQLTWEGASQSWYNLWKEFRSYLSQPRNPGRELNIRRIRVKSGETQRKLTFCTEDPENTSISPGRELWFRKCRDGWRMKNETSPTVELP
How it was run: as §1

Structure (SMILES): CC1(Cc2nnc(C(c3nc4ccc(-c5cccc(C(=O)N6CC[C@@H](O)C6)c5)cc4s3)S(C)(=O)=O)o2)NC(=O)NC1=O (stereo partly drawn) [Example 219, 5-({5-[(6-{3-[(3R)-3-hydroxypyrrolidine-1-carbonyl]phenyl}-1,3-benzothiazol-2-yl) (methanesulfonyl)methyl]-1,3,4-oxadiazol-2-yl}methyl)-5-methyl-imidazolidine-2,4-dione]
- IC50 [1]: 2300 nM
- IC50 [2]: 2 nM

Structure (SMILES): CS(=O)(=O)C(c1nnc(CC2SC(=O)NC2=O)o1)c1nc2ccc(-c3cnc(O)nc3)cc2s1 (stereo not drawn) [Example 182, 5-((5-((Methylsulfonyl)(6-(2-oxo-1,2-dihydro-5-pyrimidinyl)-1,3-benzothiazol-2-yl)methyl)-1,3,4-oxadiazol-2-yl)methyl)-1,3-thiazolidine-2,4-dione]
- IC50 [1]: 84 nM
- IC50 [2]: < 10 nM

Structure (SMILES): CC1(Cc2nnc(C(c3nc4ccc(-c5cccc(C(=O)N6CC(F)C6)c5)cc4s3)S(C)(=O)=O)o2)NC(=O)NC1=O (stereo not drawn) [Example 206, 5-{[5-({6-[3-(3-fluoroazetidine-1-carbonyl)phenyl]-1,3-benzothiazol-2-yl} (methanesulfonyl)methyl)-1,3,4-oxadiazol-2-yl]methyl}-5-methyl-imidazolidine-2,4-dione]
- IC50 [1]: 125 nM
- IC50 [2]: 16 nM

Structure (SMILES): CS(=O)(=O)C(c1nnc(CS(N)(=O)=O)o1)c1nc2c(F)cc(-c3ccccc3)cc2s1 (stereo not drawn) [Example 163, 1-(5-((4-fluoro-6-phenyl-1,3-benzothiazol-2-yl)(methylsulfonyl)methyl)-1,3,4-oxadiazol-2-yl)methanesulfonamide]
- IC50 [1]: < 10 nM
- IC50 [2]: < 10 nM

Structure (SMILES): CS(=O)(=O)C(c1nnc(CNS(N)(=O)=O)o1)c1nc2ccc(-c3cccc(C(=O)Nc4nnc(C(F)(F)F)o4)c3)cc2s1 (stereo not drawn) [Example 253, 3-{2-[methanesulfonyl({5-[(sulfamoylamino)methyl]-1,3,4-oxadiazol-2-yl})methyl]-1,3-benzothiazol-6-yl}-N-[5-(trifluoromethyl)-1,3,4-oxadiazol-2-yl] benzamide]
- IC50 [1]: 62 nM
- IC50 [2]: 7 nM

Structure (SMILES): COCCS(=O)(=O)C(c1nnc(CNS(N)(=O)=O)o1)c1nc2ccc(-c3ccccc3)cc2s1 (stereo not drawn) [Example 119, N-[(5-{[(2-methoxyethyl)sulfonyl](6-phenyl-1,3-benzothiazol-2-yl)methyl}-1,3,4-oxadiazol-2-yl)methyl]sulfuric diamide]
- IC50 [1]: < 10 nM
- IC50 [2]: < 10 nM

Structure (SMILES): CN(C)C(=O)c1ccc(-c2ccc3nc(C(c4nnc(CNS(N)(=O)=O)o4)S(=O)(=O)Cc4ccccc4)sc3c2)cc1Cl (stereo not drawn) [Example 146, 4-(2-((benzylsulfonyl)(5-((sulfamoylamino)methyl)-1,3,4-oxadiazol-2-yl)methyl)-1,3-benzothiazol-6-yl)-2-chloro-N,N-dimethylbenzamide]
- IC50 [1]: 391 nM
- IC50 [2]: < 10 nM

Structure (SMILES): Cc1noc(C)c1-c1ccc2sc(C(c3nnc(CNS(N)(=O)=O)o3)S(C)(=O)=O)nc2c1 (stereo not drawn) [Example 248, N-[(5-{[5-(dimethyl-1,2-oxazol-4-yl)-1,3-benzothiazol-2-yl] (methanesulfonyl)methyl}-1,3,4-oxadiazol-2-yl)methyl] aminosulfonamide]
- IC50 [1]: 26 nM
- IC50 [2]: 5 nM

Structure (SMILES): NS(=O)(=O)NCc1nnc(C(c2nc3ccc(-c4ccc(Cl)c(F)c4)cc3s2)S(=O)(=O)Cc2ccccc2)o1 (stereo not drawn) [Example 140, N-((5-((benzylsulfonyl)(6-(4-chloro-3-fluorophenyl)-1,3-benzothiazol-2-yl)methyl)-1,3,4-oxadiazol-2-yl)methy) sulfamide]
- IC50 [1]: < 10 nM
- IC50 [2]: < 10 nM

Structure (SMILES): CS(=O)(=O)C(c1nnc(CNS(N)(=O)=O)o1)c1nc2ccc(-c3ccc(O)nc3)cc2s1 (stereo not drawn) [Example 133, N-((5-((methylsulfonyl)(6-(6-oxo-1,6-dihydro-3-pyridinyl)-1,3-benzothiazol-2-yl)methyl)-1,3,4-oxadiazol-2-yl)methyl) sulfamide]
- IC50 [1]: 467 nM
- IC50 [2]: 16 nM

Structure (SMILES): Cn1cc(-c2ccc3nc(C(c4nnc(CNS(N)(=O)=O)o4)S(C)(=O)=O)sc3c2)cn1 (stereo not drawn) [Example 113, N-((5-((6-(1-methyl-1H-pyrazol-4-yl)-1,3-benzothiazol-2-yl)(methylsulfonyl)methyl)-1,3,4-oxadiazol-2-yl)methyl) sulfamide]
- IC50 [1]: 220 nM
- IC50 [2]: < 10 nM

Structure (SMILES): CS(=O)(=O)C(c1nnc(C[C@H]2NS(=O)(=O)NC2=O)o1)c1nc2ccc(-c3ccc(C(=O)N4CCOCC4)cc3)cc2s1 (stereo partly drawn) [Example 110, (4R)-4-((5-((methylsulfonyl) (6-(4-(4-morpholinylcarbonyl)phenyl)-1,3-benzothiazol-2-yl)methyl)-1,3,4-oxadiazol-2-yl)methyl)-1,2,5-thiadiazolidin-3-one 1,1-dioxide]
- IC50 [1]: 3240 nM
- IC50 [2]: 19 nM

Structure (SMILES): CS(=O)(=O)C(c1nnc(CNS(N)(=O)=O)o1)c1nc2cc(-c3cncnc3)ccc2s1 (stereo not drawn) [Example 247, N-[(5-{methanesulfonyl[5-(pyrimidin-5-yl)-1,3-benzothiazol-2-yl]methyl}-1,3,4-oxadiazol-2-yl)methyl]aminosulfonamide]
- IC50 [1]: 43 nM
- IC50 [2]: 4 nM

Structure (SMILES): Cn1cc(-c2ccc3nc(C(c4nnc(CNC(=O)OC(C)(C)C)o4)S(C)(=O)=O)sc3c2)cn1 (stereo not drawn) [Example 98, tert-butyl ((5-((6-(1-methyl-1H-pyrazol-4-yl)-1,3-benzothiazol-2-yl)(methylsulfonyl)methyl)-1,3,4-oxadiazol-2-yl)methyl) carbamate]
- IC50 [1]: > 25000 nM
- IC50 [2]: 168 nM

Results, then the compound that gave them:

- IC50 [1]: < 10 nM
- IC50 [2]: < 10 nM
Structure (SMILES): CC(O)CS(=O)(=O)C(c1nnc(CNS(N)(=O)=O)o1)c1nc2ccc(-c3ccccc3)cc2s1 (stereo not drawn) [Example 170, N-((5-(((2-Hydroxypropyl)sulfonyl)(6-phenyl-1,3-benzothiazol-2-yl)methyl)-1,3,4-oxadiazol-2-yl)methyl)sulfamide]

- IC50 [1]: 560 nM
- IC50 [2]: < 10 nM
Structure (SMILES): C=CCS(=O)(=O)C(c1nnc(CNS(N)(=O)=O)o1)c1nc2ccc(-c3ccc(C(=O)N4CCOCC4)cc3)cc2s1 (stereo not drawn) [Example 150, N-((5-((allylsulfonyl)(6-(4-(4-morpholinylcarbonyl)phenyl)-1,3-benzothiazol-2-yl)methyl)-1,3,4-oxadiazol-2-yl)methyl)sulfamide]

- IC50 [1]: 2570 nM
- IC50 [2]: < 10 nM
Structure (SMILES): CN1CCN(C(=O)c2cccc(-c3ccc4nc(C(c5nnc(CNS(N)(=O)=O)o5)S(=O)(=O)CC5CC5)sc4c3)c2)CC1 (stereo not drawn) [Example 197, N-((5-(((cyclopropylmethyl)sulfonyl)(6-(3-((4-methyl-1-piperazinyl)carbonyl)phenyl)-1,3-benzothiazol-2-yl)methyl)-1,3,4-oxadiazol-2-yl)methyl)sulfamide]

- IC50 [1]: 94 nM
- IC50 [2]: 13 nM
Structure (SMILES): CS(=O)(=O)C(c1nnc(CNS(N)(=O)=O)o1)c1nc2ccc(-c3cccc(C(=O)N4CC[C@H](O)C4)c3)cc2s1 (stereo partly drawn) [Example 266, N-({5-[(6-{3-[(3S)-3-hydroxypyrrolidine-1-carbonyl]phenyl}-1,3-benzothiazol-2-yl) (methanesulfonyl)methyl]-1,3,4-oxadiazol-2-yl}methyl)aminosulfonamide]

- IC50 [1]: 17 nM
- IC50 [2]: 5 nM
Structure (SMILES): CS(=O)(=O)C(c1nnc(CNS(N)(=O)=O)o1)c1nc2ccc(-c3cccc(C(=O)N4CCC(F)(F)CC4)c3)cc2s1 (stereo not drawn) [Example 254, N-{[5-({6-[3-(4,4-difluoropiperidine-1-carbonyl)phenyl]-1,3-benzothiazol-2-yl} (methanesulfonyl)methyl)-1,3,4-oxadiazol-2-yl]methyl} aminosulfonamide]

- IC50 [1]: 209 nM
- IC50 [2]: < 10 nM
Structure (SMILES): NS(=O)(=O)NCc1nnc(C(c2nc3ccc(-c4cccc(C(=O)NCCO)c4)cc3s2)S(=O)(=O)CCC(F)(F)F)o1 (stereo not drawn) [Example 196, N-(2-hydroxyethyl)-3-(2-((5-((sulfamoylamino)methyl)-1,3,4-oxadiazol-2-yl)((3,3,3-trifluoropropyl)sulfonyl)methyl)-1,3-benzothiazol-6-yl)benzamide]

- IC50 [1]: 124 nM
- IC50 [2]: 11 nM
Structure (SMILES): Cn1cc(-c2ccc3nc(C(c4nnc(CNS(N)(=O)=O)o4)S(=O)(=O)CCC(=O)O)sc3c2)cn1 (stereo not drawn) [Example 174, 3-(((6-(1-Methyl-1H-pyrazol-4-yl)-1,3-benzothiazol-2-yl)(5-((sulfamoylamino)methyl)-1,3,4-oxadiazol-2-yl)methyl)sulfonyl)propanoic acid]
